Assay results as given in patent US7494754B2, “Electrophotographic photoreceptor containing asymmetric naphthalenetetracarboxylic acid diimide derivatives and electrophotographic imaging apparatus employing the same” (Samsung Electronics Co., Ltd., priority 2005, dated 2009).

Assay: Solubility test in organic solvents
Assay type: physicochemical
Settings: for Methylene chloride (g): amount of solvent required to completely dissolve 1 g of the tested compound / Tetrahydrofuran (g): amount of solvent required to completely dissolve 1 g of the tested compound: room temperature, 1 g compound
Description: 1 g of a compound to be tested was poured into a test tube with stirring at room temperature and solvents listed in Table 1 were slowly added drop by drop. The amounts of the solvents required to completely dissolve 1 g of the tested compound were measured.

Row | Compound | Methylene chloride (g): amount of solvent required to completely dissolve 1 g of the tested compound | Tetrahydrofuran (g): amount of solvent required to completely dissolve 1 g of the tested compound | solubility in organic solvents (in words)
1 | CCCCN1C(=O)c2ccc3c4c(ccc(c24)C1=O)C(=O)N(C(C)c1ccccc1)C3=O (stereo not shown) [Compound (4)] | 1.5 g | 12 g | 
2 | CCCCN1C(=O)c2ccc3c4c(ccc(c24)C1=O)C(=O)N(C(CC)c1ccccc1)C3=O (stereo not shown) [Compound (12)] | 1.3 g | 7 g | 
3 | CC(c1ccccc1)N1C(=O)c2ccc3c4c(ccc(c24)C1=O)C(=O)N(C(C)c1ccccc1)C3=O (stereo not shown) [Compound (30)] | 3.5 g | 50 g | poor solubility
4 | CCCCN1C(=O)c2ccc3c4c(ccc(c24)C1=O)C(=O)N(CCCC)C3=O [Compound (40)] | 17 g | 74 g | very poor solubility
